Results: patent publication US20090325959A1 (priority 2008, published 2009)
Where two headings read alike, the source gives them in different places.

Legend:
Akt3 human enzyme = molecular target: T1, Akt3 human enzyme (Homo sapiens, UniProt Q9Y243); experiment: Akt3 inhibition assay (IMAP FP); format: biochemical;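 note: kinase reaction run 60 min at room temperature after 30 µM ATP start, phosphorylated substrate captured on IMAP beads and read as fluorescence polarization (mP)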
T1 construct: purchased Upstate Chemicon 14-502
T1 sequence (Q9Y243 whole entry): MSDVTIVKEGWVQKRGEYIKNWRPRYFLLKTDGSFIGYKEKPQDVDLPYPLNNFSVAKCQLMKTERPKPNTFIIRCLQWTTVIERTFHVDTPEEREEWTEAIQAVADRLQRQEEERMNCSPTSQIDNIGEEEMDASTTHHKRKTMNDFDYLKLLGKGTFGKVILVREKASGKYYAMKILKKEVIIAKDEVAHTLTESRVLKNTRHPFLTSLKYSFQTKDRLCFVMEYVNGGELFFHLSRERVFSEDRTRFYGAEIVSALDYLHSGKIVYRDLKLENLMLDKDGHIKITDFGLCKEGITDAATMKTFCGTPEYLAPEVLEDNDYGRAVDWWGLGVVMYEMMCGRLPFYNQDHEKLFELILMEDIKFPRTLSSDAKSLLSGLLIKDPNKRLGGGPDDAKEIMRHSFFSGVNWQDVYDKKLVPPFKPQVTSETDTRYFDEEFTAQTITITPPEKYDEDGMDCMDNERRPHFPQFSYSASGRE

ROCK2 = molecular target: T2, ROCK2 (Homo sapiens, UniProt O75116); experiment: Rho kinase inhibition assay (IMAP fluorescence polarization), ROCK2; format: biochemical;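 note: kinase reaction started with 10 µM ATP and run 60 min at room temperature, then phosphorylated substrate captured on IMAP beads for 30 min and fluorescence polarization read in mP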
T2 construct: purchased Upstate/Chemicon 14-451
T2 sequence (O75116 11-552 limits assumed): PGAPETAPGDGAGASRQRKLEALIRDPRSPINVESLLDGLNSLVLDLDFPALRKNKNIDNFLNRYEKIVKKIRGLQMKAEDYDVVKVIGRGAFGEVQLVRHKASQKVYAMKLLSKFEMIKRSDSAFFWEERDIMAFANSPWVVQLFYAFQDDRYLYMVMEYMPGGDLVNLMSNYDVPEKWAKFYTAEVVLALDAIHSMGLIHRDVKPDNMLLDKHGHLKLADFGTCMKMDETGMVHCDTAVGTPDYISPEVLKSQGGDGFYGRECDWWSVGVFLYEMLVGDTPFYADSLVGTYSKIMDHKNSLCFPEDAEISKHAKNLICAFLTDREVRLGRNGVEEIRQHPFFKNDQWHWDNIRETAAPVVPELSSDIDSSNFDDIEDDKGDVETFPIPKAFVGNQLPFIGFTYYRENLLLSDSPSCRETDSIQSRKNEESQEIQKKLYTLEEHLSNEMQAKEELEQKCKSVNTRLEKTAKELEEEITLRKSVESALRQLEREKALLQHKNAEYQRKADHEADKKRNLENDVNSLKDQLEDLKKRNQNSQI
Protocol: (§1) Following the pre-incubation, 10 μM ATP was added to initiate the reaction. After 60 minutes at room temperature, Molecular Devices IMAP™ binding solution was added to bind phosphorylated substrate. After 30 minutes of incubation in the presence of the IMAP™ beads, the fluorescence polarization was read and the ratio was reported as mP. IC50 values for compounds and EC50 values for ATP were calculated using the Prism software from Graphpad.

p70S6K human enzyme = molecular target: T3, p70S6K human enzyme (Homo sapiens, UniProt P23443, T412E); experiment: p70S6K inhibition assay (IMAP FP); format: biochemical;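 note: kinase reaction run at room temperature, phosphorylated substrate captured on IMAP beads and read as fluorescence polarization in mP, IC50 then converted to Ki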
T3 construct: purchased Upstate Chemicon 14-486
T3 sequence (P23443 1-421 T412E limits assumed): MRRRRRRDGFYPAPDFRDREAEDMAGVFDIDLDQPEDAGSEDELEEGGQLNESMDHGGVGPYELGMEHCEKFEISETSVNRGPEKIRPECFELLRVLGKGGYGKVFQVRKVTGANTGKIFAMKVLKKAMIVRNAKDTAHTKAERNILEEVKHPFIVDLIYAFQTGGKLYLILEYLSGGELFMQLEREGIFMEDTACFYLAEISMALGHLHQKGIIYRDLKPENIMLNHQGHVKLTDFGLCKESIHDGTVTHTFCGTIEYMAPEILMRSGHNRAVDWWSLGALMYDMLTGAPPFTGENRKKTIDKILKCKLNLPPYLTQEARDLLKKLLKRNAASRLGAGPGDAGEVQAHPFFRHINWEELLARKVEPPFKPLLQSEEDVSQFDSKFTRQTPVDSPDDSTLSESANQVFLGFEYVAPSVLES

[1] = Compound plasma concentrations in unsensitized mice at 15 min post administration; format: in vivo; conditions: mouse, 15 μmol/kg; mean compound plasma concentration in mice at 15 minutes post oral administration; read-out: Mouse Oral PK
Protocol: Additionally, compound concentrations were determined in the plasma and lungs of male, ovalbumin-sensitized, Balb/c mice from a murine model of asthma. Test compounds were formulated in water or 1% polysorbate 80 and dosed at 15 μmol/kg for intraperitoneal (IP) or oral (PO) administration or formulated for intratracheal (IT) administration and dosed at 5 μmol/kg, which directly targets the lungs. Following completion of the in vivo study, mice were euthanized and blood and plasma collected approximately 2.5-3 hours post administration of test compound for bronchodialator (BD) studies and 24 hours post administration for anti-inflamatory (AI) studies. Lungs were homogenized in Matrix A lysing tubes using a FastPrep 24 tissue and cell homogenizer (MP Biomedicals, Solon, Ohio). Both plasma samples and lung extracts were assayed for compound concentrations using an on-line, solid phase extraction LC/MS/MS system.

ROCK1 = molecular target: T4, ROCK1 (Homo sapiens, UniProt Q13464); experiment: Rho kinase inhibition assay (IMAP fluorescence polarization), ROCK1; format: biochemical;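 note: kinase reaction run 60 min at room temperature, then phosphorylated substrate captured on IMAP beads for 30 min, with fluorescence polarization read in mP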
T4 construct: purchased Upstate/Chemicon 14-601
T4 sequence (Q13464 17-535 limits assumed): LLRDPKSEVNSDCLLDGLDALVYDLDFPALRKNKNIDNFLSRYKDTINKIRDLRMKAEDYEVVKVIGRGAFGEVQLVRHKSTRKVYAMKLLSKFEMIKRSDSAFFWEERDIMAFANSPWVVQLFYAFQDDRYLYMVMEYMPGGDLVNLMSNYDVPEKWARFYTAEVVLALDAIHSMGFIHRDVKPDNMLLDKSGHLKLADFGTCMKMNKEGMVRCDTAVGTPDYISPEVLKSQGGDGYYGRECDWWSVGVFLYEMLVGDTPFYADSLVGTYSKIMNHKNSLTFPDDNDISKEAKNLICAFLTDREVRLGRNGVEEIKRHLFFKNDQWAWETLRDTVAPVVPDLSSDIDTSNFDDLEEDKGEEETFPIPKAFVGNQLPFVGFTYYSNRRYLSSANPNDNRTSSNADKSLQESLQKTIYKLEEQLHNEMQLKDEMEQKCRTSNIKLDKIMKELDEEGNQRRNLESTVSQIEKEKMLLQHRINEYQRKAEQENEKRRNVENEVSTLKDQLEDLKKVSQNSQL
Protocol: as §1

[2] = 30 μM ATP, Ki=IC50/(1+([ATP Challenge]/EC50 ATP)), read-out: Akt3 Ki, Avg
[3] = 10 μM ATP, read-out: ROCK2 Ki, Avg
[4] = 30 μM ATP, Ki=IC50/(1+([ATP Challenge]/EC50 ATP)), read-out: p70S6K Ki, Avg
[5] = average Ki, read-out: p70S6K Ki

| SMILES | Ki (Akt3 human enzyme; [2]) [µM] | Ki (Akt3 human enzyme; average Ki, read-out: Akt3 Ki) [µM] | Ki (ROCK2; [3]) [µM] | Ki (ROCK2; average Ki, read-out: ROCK2 Ki) [µM] | Ki (p70S6K human enzyme; [4]) [µM] | Ki (p70S6K human enzyme; [5]) [µM] | concentration at 15 min [1] [nM] | Ki (ROCK1; Avg, 10 μM ATP) [µM] | Ki (ROCK1; average Ki) [µM] |
| --- | --- | --- | --- | --- | --- | --- | --- | --- | --- |
| CS(=O)(=O)Nc1cc(CN2CCC[C@@H](Nc3ccc4[nH]ncc4c3)C2)ccc1Cl [Compound 1.212, (R)-N-(5-((3-(1H-indazol-5-ylamino)piperidin-1-yl)methyl)-2-chlorophenyl)methanesulfonamide] | 0.39 | 0.39 | 0.0039 | 0.0039 | 0.894 | 0.894 | 863 | 0.0442 | 0.0442 |
| C#Cc1cccc(CN2CCC[C@H](Nc3ccc4[nH]ncc4c3)C2)c1 [Compound 1.153, (S)-N-(1-(3-ethynylbenzyl)piperidin-3-yl)-1H-indazol-5-amine] | 9.95 | 9.95 | 0.0042 | 0.0042 | 2.38 | 2.38 | 522 | 0.0628 | 0.0628 |
| Cc1ccc(CN2CCC[C@H](Nc3ccc4[nH]ncc4c3)C2)cc1OCCO [Compound 1.152, (S)-2-(5-((3-(1H-indazol-5-ylamino)piperidin-1-yl)methyl)-2-methylphenoxy)ethanol] | 1.98 | 1.98 | 0.0033 | 0.0033 | 0.523 | 0.523 | 435 | 0.0198 | 0.0198 |
| CCS(=O)(=O)Nc1cc(CN2CCC[C@@H](Nc3ccc4[nH]ncc4c3)C2)ccc1C [Compound 1.259, (R)-N-(5-((3-(1H-indazol-5-ylamino)piperidin-1-yl)methyl)-2-methylphenyl)ethanesulfonamide] | – | – | 0.0021 | 0.0021 | – | – | 264 | 0.0195 | 0.0195 |
| NS(=O)(=O)c1cccc(CN2CCC[C@@H](Nc3ccc4[nH]ncc4c3)C2)c1 [Compound 1.249, (R)-3-((3-(1H-indazol-5-ylamino)piperidin-1-yl)methyl)benzenesulfonamide] | 1.6 | 1.6 | 0.0086 | 0.0086 | 0.937 | 0.937 | 2150 | 0.0917 | 0.0917 |
| c1cc2cc(CN3CCC[C@H](Nc4ccc5[nH]ncc5c4)C3)ccc2o1 [Compound 1.150, (S)-N-(1-(benzofuran-5-ylmethyl)piperidin-3-yl)-1H-indazol-5-amine] | 3.18 | 3.18 | 0.0032 | 0.0032 | 1.27 | 1.27 | 1390 | 0.0332 | 0.0332 |
| C#Cc1cccc(CN2CCC[C@@H](Nc3ccc4[nH]ncc4c3)C2)c1 [Compound 1.193, (R)-N-(1-(3-ethynylbenzyl)piperidin-3-yl)-1H-indazol-5-amine] | – | – | 0.0148 | 0.0148 | – | – | 55 | 0.0649 | 0.0649 |
| OCCn1ccc2ccc(CN3CCC[C@H](Nc4ccc5[nH]ncc5c4)C3)cc21 [Compound 1.109, (S)-2-(6-((3-(1H-indazol-5-ylamino)piperidin-1-yl)methyl)-1H-indol-1-yl)ethanol] | 5.19 | 5.19 | 0.0096 | 0.0096 | 2.5 | 2.5 | 187 | 0.0588 | 0.0588 |
| OCCN1CCc2ccc(CN3CCC[C@H](Nc4ccc5[nH]ncc5c4)C3)cc21 [Compound 1.217, (S)-2-(6-((3-(1H-indazol-5-ylamino)piperidin-1-yl)methyl)indolin-1-yl)ethanol] | 10.3 | 10.3 | 0.0121 | 0.0121 | 3.5 | 3.5 | 293 | 0.0701 | 0.0701 |
| Clc1ccc(CN2CCC[C@H](Nc3ccc4[nH]ncc4c3)C2)cc1 [Compound 1.141, (S)-N-(1-(4-chlorobenzyl)piperidin-3-yl)-1H-indazol-5-amine] | 1.26 | 1.26 | 0.0038 | 0.0038 | 0.387 | 0.387 | 1640 | 0.0285 | 0.0285 |
| CC(C)(C)OC(=O)NCc1cccc(CN2CCC[C@H](Nc3ccc4[nH]ncc4c3)C2)c1 [Compound 1.176, (S)-tert-butyl 3-((3-(1H-indazol-5-ylamino)piperidin-1-yl)methyl)benzylcarbamate] | 20.9 | 20.9 | – | – | 8.76 | 8.76 | 89 | 0.314 | 0.314 |
| COc1ccc(CN2CCC[C@@H](Nc3ccc4[nH]ncc4c3)C2)cc1 [Compound 1.226, (R)-N-(1-(4-methoxybenzyl)piperidin-3-yl)-1H-indazol-5-amine] | 0.531 | – | 0.0088 | – | 1.35 | – | – | 0.0917 | – |
| c1cc(N[C@@H]2CCN(Cc3ccc4cc[nH]c4c3)C2)c2ccncc2c1 [Compound 2.057, (R)-N-(1-((1H-indol-6-yl)methyl)pyrrolidin-3-yl)isoquinolin-5-amine] | – | – | 0.0037 | 0.0037 | – | – | 431 | 0.0062 | 0.0062 |
